Measurements taken from patent US10626144B2, “Peptide derivatives and uses thereof” (Nosopharm, priority 2014, dated 2020).
Square brackets hold non-standard residues; d marks the D form. Peptide text beside a SMILES is read from it. * marks the point of attachment. Dab(3S-OH) = NC[C@H](O)[C@H](N)C(=O)O; ΔZArg = N=C(N)NCC/C=C(\N)C(=O)O; aThr = C[C@H](O)[C@H](N)C(=O)O; dOrn = NCCC[C@@H](N)C(=O)O; Abu = CC[C@H](N)C(=O)O; NH(CH2)4NH2 = NCCCCN*

Key:
[1] = molecular target: N-type calcium channels (Cav2.2) (Rattus norvegicus (Rat), UniProt Q02294); experiment: biochemical; format: binding; conditions: class symbol; rat cerebral cortex, [125I]ω-conotoxin GVIA 0.001 nM, 30 minutes at room temperature; read-out: IC50 Cav2.2
[2] = test system: Acinetobacter baumannii ATCC 19606; experiment: MIC, broth microdilution (CLSI), reference strain; conditions: CAMHB
[3] = test system: Escherichia coli ATCC 25922; experiment: MIC, broth microdilution (CLSI), reference strain; conditions: CAMHB
[4] = test system: Pseudomonas aeruginosa ATCC 27853; experiment: MIC, broth microdilution (CLSI), reference strain; conditions: CAMHB
[5] = test system: Staphylococcus aureus ATCC 13709; experiment: MIC, broth microdilution (CLSI), reference strain; conditions: CAMHB

SMILES: C[C@H](O)[C@H](NC(=O)[C@@H](NC(=O)[C@@H](N)CCCCN)[C@@H](O)CN)C(=O)NCC(=O)N[C@H](CCCN)C(=O)N1CCC[C@H]1C(=O)N[C@@H](Cc1cnc[nH]1)C(=O)N[C@@H](CCCCN)C(=O)N/C(=C\CCNC(=N)N)C(=O)O [25.2] (H-K[Dab(3S-OH)][aThr]G[dOrn]PHK[ΔZArg]-OH)
- IC50 [1]: > 300 nM
- Ab: MIC Acinetobacter baumannii ATCC 19606 [2]: − (>32 μg/mL)
- Ec: MIC Escherichia coli ATCC 25922 [3]: − (>32 μg/mL)
- Pa: MIC Pseudomonas aeruginosa ATCC 27853 [4]: − (>32 μg/mL)
- Sa: MIC Staphylococcus aureus ATCC 13709 [5]: − (>32 μg/mL)

SMILES: CC[C@H](C)[C@H](NC(=O)[C@@H](NC(=O)[C@@H](N)CCCCN)[C@@H](O)CN)C(=O)NCC(=O)N[C@H](CCCN)C(=O)N1CCC[C@H]1C(=O)N[C@@H](Cc1cnc[nH]1)C(=O)N[C@@H](CCCCN)C(=O)N/C(=C\CCNC(=N)N)C(=O)N[C@@H](CCCCN)C(=O)NCCCCN [27.1] (H-K[Dab(3S-OH)]IG[dOrn]PHK[ΔZArg]K-{NH(CH2)4NH2})
- IC50 [1]: < 30 nM
- Ab: MIC Acinetobacter baumannii ATCC 19606 [2]: − (>32 μg/mL)
- Ec: MIC Escherichia coli ATCC 25922 [3]: ++ (≤8 μg/mL)
- Pa: MIC Pseudomonas aeruginosa ATCC 27853 [4]: − (>32 μg/mL)
- Sa: MIC Staphylococcus aureus ATCC 13709 [5]: ++ (≤8 μg/mL)

SMILES: CC[C@H](C)[C@H](NC(=O)[C@@H](NC(=O)[C@@H](N)CCCCN)[C@@H](O)CN)C(=O)NCC(=O)N[C@H](CCCN)C(=O)N1CCC[C@H]1C(=O)N[C@@H](Cc1cnc[nH]1)C(=O)N[C@@H](CCCCN)C(=O)N/C(=C\CCNC(=N)N)C(=O)O [27.2] (H-K[Dab(3S-OH)]IG[dOrn]PHK[ΔZArg]-OH)
- IC50 [1]: > 300 nM
- Ab: MIC Acinetobacter baumannii ATCC 19606 [2]: − (>32 μg/mL)
- Ec: MIC Escherichia coli ATCC 25922 [3]: − (>32 μg/mL)
- Pa: MIC Pseudomonas aeruginosa ATCC 27853 [4]: − (>32 μg/mL)
- Sa: MIC Staphylococcus aureus ATCC 13709 [5]: + (≤32 μg/mL)

SMILES: CC[C@H](NC(=O)[C@@H](NC(=O)[C@@H](N)CCCCN)[C@@H](O)CN)C(=O)NCC(=O)N[C@H](CCCN)C(=O)N1CCC[C@H]1C(=O)N[C@@H](Cc1cnc[nH]1)C(=O)N[C@@H](CCCCN)C(=O)N/C(=C\CCNC(=N)N)C(=O)N[C@@H](CCCCN)C(=O)NCCCCN [28.1] (H-K[Dab(3S-OH)][Abu]G[dOrn]PHK[ΔZArg]K-{NH(CH2)4NH2})
- IC50 [1]: < 30 nM
- Ab: MIC Acinetobacter baumannii ATCC 19606 [2]: − (>32 μg/mL)
- Ec: MIC Escherichia coli ATCC 25922 [3]: ++ (≤8 μg/mL)
- Pa: MIC Pseudomonas aeruginosa ATCC 27853 [4]: − (>32 μg/mL)
- Sa: MIC Staphylococcus aureus ATCC 13709 [5]: ++ (≤8 μg/mL)

SMILES: CC[C@H](NC(=O)[C@@H](NC(=O)[C@@H](N)CCCCN)[C@@H](O)CN)C(=O)NCC(=O)N[C@H](CCCN)C(=O)N1CCC[C@H]1C(=O)N[C@@H](Cc1cnc[nH]1)C(=O)N[C@@H](CCCCN)C(=O)N/C(=C\CCNC(=N)N)C(=O)O [28.2] (H-K[Dab(3S-OH)][Abu]G[dOrn]PHK[ΔZArg]-OH)
- IC50 [1]: > 300 nM
- Ab: MIC Acinetobacter baumannii ATCC 19606 [2]: − (>32 μg/mL)
- Ec: MIC Escherichia coli ATCC 25922 [3]: − (>32 μg/mL)
- Pa: MIC Pseudomonas aeruginosa ATCC 27853 [4]: − (>32 μg/mL)
- Sa: MIC Staphylococcus aureus ATCC 13709 [5]: + (≤32 μg/mL)

SMILES: CC(C)[C@H](NC(=O)[C@@H](NC(=O)[C@@H](N)CCCCN)[C@@H](O)CN)C(=O)NCC(=O)N[C@H](CCCN)C(=O)N1CCC[C@H]1C(=O)N[C@@H](Cc1cnc[nH]1)C(=O)N[C@@H](CCCCN)C(=O)N/C(=C\CCNC(=N)N)C(=O)N[C@@H](CCCCN)C(=O)NCCCCN [212.1] (H-K[Dab(3S-OH)]VG[dOrn]PHK[ΔZArg]K-{NH(CH2)4NH2})
- IC50 [1]: < 30 nM
- Ab: MIC Acinetobacter baumannii ATCC 19606 [2]: − (>32 μg/mL)
- Ec: MIC Escherichia coli ATCC 25922 [3]: ++ (≤8 μg/mL)
- Pa: MIC Pseudomonas aeruginosa ATCC 27853 [4]: − (>32 μg/mL)
- Sa: MIC Staphylococcus aureus ATCC 13709 [5]: ++ (≤8 μg/mL)

SMILES: CC(C)[C@H](NC(=O)[C@@H](NC(=O)[C@@H](N)CCCCN)[C@@H](O)CN)C(=O)NCC(=O)N[C@H](CCCN)C(=O)N1CCC[C@H]1C(=O)N[C@@H](Cc1cnc[nH]1)C(=O)N[C@@H](CCCCN)C(=O)N/C(=C\CCNC(=N)N)C(=O)O [212.2] (H-K[Dab(3S-OH)]VG[dOrn]PHK[ΔZArg]-OH)
- IC50 [1]: > 300 nM
- Ab: MIC Acinetobacter baumannii ATCC 19606 [2]: − (>32 μg/mL)
- Ec: MIC Escherichia coli ATCC 25922 [3]: − (>32 μg/mL)
- Pa: MIC Pseudomonas aeruginosa ATCC 27853 [4]: − (>32 μg/mL)
- Sa: MIC Staphylococcus aureus ATCC 13709 [5]: + (≤32 μg/mL)
